Source: BigSolDB 2.1

Nc1cccc2c1CN(C1CCC(=O)NC1=O)C2=O (stereo not given)
solubility (mole fraction) (in acetonitrile, 293.15 K): 0.000539
solubility (mole fraction) (in acetonitrile, 298.15 K): 0.000549
solubility (mole fraction) (in acetonitrile, 303.15 K): 0.000561
solubility (mole fraction) (in acetonitrile, 308.15 K): 0.000573
solubility (mole fraction) (in acetonitrile, 313.15 K): 0.000588
solubility (mole fraction) (in acetonitrile, 318.15 K): 0.000603
solubility (mole fraction) (in acetonitrile, 323.15 K): 0.000618
solubility (mole fraction) (in acetonitrile, 328.15 K): 0.000634
solubility (mole fraction) (in acetonitrile, 333.15 K): 0.000652
solubility (mole fraction) (in ethanol, 293.15 K): 0.000164
solubility (mole fraction) (in ethanol, 298.15 K): 0.000183
solubility (mole fraction) (in ethanol, 303.15 K): 0.000209
solubility (mole fraction) (in ethanol, 308.15 K): 0.000238
solubility (mole fraction) (in ethanol, 313.15 K): 0.00027
solubility (mole fraction) (in ethanol, 318.15 K): 0.000309
solubility (mole fraction) (in ethanol, 323.15 K): 0.000357
solubility (mole fraction) (in ethanol, 328.15 K): 0.000404
solubility (mole fraction) (in ethanol, 333.15 K): 0.00046
solubility (mole fraction) (in ethyl acetate, 293.15 K): 0.000127
solubility (mole fraction) (in ethyl acetate, 298.15 K): 0.000144
solubility (mole fraction) (in ethyl acetate, 303.15 K): 0.000164
solubility (mole fraction) (in ethyl acetate, 308.15 K): 0.000184
solubility (mole fraction) (in ethyl acetate, 313.15 K): 0.00021
solubility (mole fraction) (in ethyl acetate, 318.15 K): 0.000239
solubility (mole fraction) (in ethyl acetate, 323.15 K): 0.000277
solubility (mole fraction) (in ethyl acetate, 328.15 K): 0.000319
solubility (mole fraction) (in ethyl acetate, 333.15 K): 0.000367
solubility (mole fraction) (in isopropanol, 293.15 K): 6.37e-05
solubility (mole fraction) (in isopropanol, 298.15 K): 7.79e-05
solubility (mole fraction) (in isopropanol, 303.15 K): 9.5e-05
solubility (mole fraction) (in isopropanol, 308.15 K): 0.000116
solubility (mole fraction) (in isopropanol, 313.15 K): 0.000141
solubility (mole fraction) (in isopropanol, 318.15 K): 0.000168
solubility (mole fraction) (in isopropanol, 323.15 K): 0.000195
solubility (mole fraction) (in isopropanol, 328.15 K): 0.000231
solubility (mole fraction) (in isopropanol, 333.15 K): 0.000271
solubility (mole fraction) (in methanol, 293.15 K): 0.000252
solubility (mole fraction) (in methanol, 298.15 K): 0.000269
solubility (mole fraction) (in methanol, 303.15 K): 0.000288
solubility (mole fraction) (in methanol, 308.15 K): 0.000309
solubility (mole fraction) (in methanol, 313.15 K): 0.000332
solubility (mole fraction) (in methanol, 318.15 K): 0.000359
solubility (mole fraction) (in methanol, 323.15 K): 0.000394
solubility (mole fraction) (in methanol, 328.15 K): 0.000434
solubility (mole fraction) (in methanol, 333.15 K): 0.00048
